Test results taken from patent US20240116985A1, “STAPLED PEPTIDES AND METHODS THEREOF” (priority 2020, published 2024).
pIC50: −log10 of the molar value.

Molecular target: T1, full-length beta-Catenin (Uniprot ID P35222) (Homo sapiens, UniProt P35222)
T1 construct: 10 nM full-length beta-Catenin (Uniprot ID P35222)
T1 sequence (P35222 1-781): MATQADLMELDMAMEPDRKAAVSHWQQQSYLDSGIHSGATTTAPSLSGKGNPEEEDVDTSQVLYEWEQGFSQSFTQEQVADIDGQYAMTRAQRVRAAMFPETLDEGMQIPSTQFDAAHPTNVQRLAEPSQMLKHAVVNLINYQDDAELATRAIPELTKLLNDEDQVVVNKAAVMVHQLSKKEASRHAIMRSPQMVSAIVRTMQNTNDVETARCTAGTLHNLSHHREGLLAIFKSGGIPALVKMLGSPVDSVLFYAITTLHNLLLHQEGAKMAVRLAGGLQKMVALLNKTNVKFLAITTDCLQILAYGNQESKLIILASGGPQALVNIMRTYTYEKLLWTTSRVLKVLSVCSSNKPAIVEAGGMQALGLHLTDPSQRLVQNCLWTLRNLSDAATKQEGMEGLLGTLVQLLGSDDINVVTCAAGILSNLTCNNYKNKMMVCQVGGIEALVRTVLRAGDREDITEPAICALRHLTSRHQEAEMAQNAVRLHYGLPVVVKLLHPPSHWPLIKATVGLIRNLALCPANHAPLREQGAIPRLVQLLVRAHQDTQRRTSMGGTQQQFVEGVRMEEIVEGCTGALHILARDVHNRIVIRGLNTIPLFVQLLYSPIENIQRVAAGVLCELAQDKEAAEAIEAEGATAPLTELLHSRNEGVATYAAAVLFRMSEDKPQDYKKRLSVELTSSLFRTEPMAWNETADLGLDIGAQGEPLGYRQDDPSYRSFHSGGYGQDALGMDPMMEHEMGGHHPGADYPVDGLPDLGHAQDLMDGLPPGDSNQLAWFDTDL
Experiment: Fluorescence polarization IC50 (beta-catenin / 5FAM-TCF4 10-53 competition)
Type: binding
Conditions: fluorescence polarization; read-out: beta-Catenin FP IC50

Compound | pIC50
CC(=O)N1CCC[C@]12CC=CCCCC1(CCCC=CCCCOC(=O)N3CC[C@@](C(=O)N[C@@H](Cc4ccsc4)C(=O)N[C@@H](Cc4csc5ccccc45)C(=O)N[C@@H](CCC(N)=O)C(N)=O)(C3)NC(=O)[C@H](CC(N)=O)NC(=O)[C@H](Cc3ccccc3)NC(=O)C(C)(C)NC(=O)[C@H](C)NC(=O)[C@H]([C@@H](C)O)NC(=O)[C@H](CC(N)=O)NC1=O)NC(=O)[C@H](CC(C)(C)C)NC(=O)[C@H](CC(=O)O)NC2=O (stereo partly drawn) [I-2339, Ac-PL3-Asp-Npg-B5-Asn-Thr-Ala-Aib-Phe-Asn-PyrS2-3Thi-BztA-Gln-NH2] | 5.55
CC(=O)N1CCC[C@]12CC=CCCCC1(CCCC=CCCCOC(=O)N3CC[C@@](C(=O)N[C@@H](Cc4ccccc4)C(=O)N[C@@H](Cc4csc5ccccc45)C(=O)N[C@@H](CCC(N)=O)C(N)=O)(C3)NC(=O)[C@H](CC(C)C)NC(=O)[C@H](Cc3ccccc3)NC(=O)[C@H](C)NC(=O)[C@H](CCCCNC(C)C)NC(=O)[C@H](Cc3cccc(C(N)=O)c3)NC(=O)[C@H](CC(=O)O)NC1=O)NC(=O)[C@H](CC1CCCCC1)NC(=O)[C@H](CC(N)=O)NC2=O (stereo partly drawn) [I-2342, Ac-PL3-Asn-Cha-B5-Asp-3cbmf-iPrLys-Ala-Phe-Leu-PyrS2-Phe-BztA-Gln-NH2] | 5.56
CC(=O)N1CCC[C@]12CC=CCCCC1(CCCC=CCCCOC(=O)N3CC[C@@](C(=O)N[C@@H](Cc4ccccc4)C(=O)N[C@@H](Cc4csc5ccccc45)C(=O)N[C@@H](CCC(N)=O)C(N)=O)(C3)NC(=O)[C@H](CC(C)C)NC(=O)[C@H](Cc3ccccc3)NC(=O)[C@H](C)NC(=O)[C@H](CCCCNC(C)C)NC(=O)[C@H](CCCCN)NC(=O)[C@H](CC(=O)O)NC1=O)NC(=O)[C@H](CC1CCCCC1)NC(=O)[C@H](CC(N)=O)NC2=O (stereo partly drawn) [I-2346, Ac-PL3-Asn-Cha-B5-Asp-Lys-iPrLys-Ala-Phe-Leu-PyrS2-Phe-BztA-Gln-NH2] | 6.37
CC(=O)N1CCC[C@]12CC=CCCCC1(CCCC=CCCCOC(=O)N3CC[C@@](C(=O)N[C@@H](Cc4ccccc4)C(=O)N[C@@H](Cc4csc5ccccc45)C(=O)N[C@@H](CCC(N)=O)C(N)=O)(C3)NC(=O)[C@H](CC(C)C)NC(=O)[C@H](Cc3ccccc3)NC(=O)[C@H](C)NC(=O)[C@H](CCCCNC(C)C)NC(=O)[C@H](CCC(N)=O)NC(=O)[C@H](CC(=O)O)NC1=O)NC(=O)[C@H](CC1CCCCC1)NC(=O)[C@H](CCO)NC2=O (stereo partly drawn) [I-2353, Ac-PL3-Hse-Cha-B5-Asp-Gln-iPrLys-Ala-Phe-Leu-PyrS2-Phe-BztA-Gln-NH2] | 5.56
CC(=O)N1CCC[C@]12CC=CCCCC1(CCCC=CCCCOC(=O)N3CC[C@@](C(=O)N[C@@H](Cc4ccccc4)C(=O)N[C@@H](Cc4csc5ccccc45)C(=O)N[C@@H](CCC(N)=O)C(N)=O)(C3)NC(=O)[C@H](CC(C)C)NC(=O)[C@H](Cc3ccccc3)NC(=O)[C@H](C)NC(=O)[C@H](CCO)NC(=O)[C@H](CCC(N)=O)NC(=O)[C@H](CC(=O)O)NC1=O)NC(=O)[C@H](CC1CCCCC1)NC(=O)[C@H](CC(N)=O)NC2=O (stereo partly drawn) [I-2355, Ac-PL3-Asn-Cha-B5-Asp-Gln-Hse-Ala-Phe-Leu-PyrS2-Phe-BztA-Gln-NH2] | 6.38

The next lines start with the values.

pIC50 | Compound
6.23 | CC(=O)N1CCC[C@]12CC=CCCCC1(CCCC=CCCCOC(=O)N3CC[C@@](C(=O)N[C@@H](Cc4ccccc4)C(=O)N[C@@H](Cc4csc5ccccc45)C(=O)N[C@@H](CCC(N)=O)C(N)=O)(C3)NC(=O)[C@H](CC(C)C)NC(=O)[C@H](Cc3ccccc3)NC(=O)[C@H](C)NC(=O)[C@H](CCCCNC(C)C)NC(=O)[C@H](CCO)NC(=O)[C@H](CC(=O)O)NC1=O)NC(=O)[C@H](CC1CCCCC1)NC(=O)[C@H](CC(N)=O)NC2=O (stereo partly drawn) [I-2344, Ac-PL3-Asn-Cha-B5-Asp-Hse-iPrLys-Ala-Phe-Leu-PyrS2-Phe-BztA-Gln-NH2]
5.90 | CC(=O)N1CCC[C@]12CC=CCCCC1(CCCC=CCCCOC(=O)N3CC[C@@](C(=O)N[C@@H](Cc4ccccc4)C(=O)N[C@@H](Cc4csc5ccccc45)C(=O)N[C@@H](CCC(N)=O)C(N)=O)(C3)NC(=O)[C@H](CC(C)C)NC(=O)[C@H](Cc3ccccc3)NC(=O)[C@H](C)NC(=O)[C@H](CCCCNC(C)C)NC(=O)[C@H](CCO)NC(=O)[C@H](CC(=O)O)NC1=O)NC(=O)[C@H](CC1CCCCC1)NC(=O)[C@H](CC(N)=O)NC2=O (stereo partly drawn) [I-2345, Ac-PL3-Asn-Cha-B5-Asp-Hse-iPrLys-Ala-Phe-Leu-PyrS2-Phe-BztA-Gln-NH2]
5.25 | CC(=O)N1CCC[C@]12CC=CCCCC1(CCCC=CCCCOC(=O)N3CC[C@@](C(=O)N[C@@H](Cc4ccccc4)C(=O)N[C@@H](Cc4csc5ccccc45)C(=O)N[C@@H](CCC(N)=O)C(N)=O)(C3)NC(=O)[C@H](CC(C)C)NC(=O)[C@H](Cc3ccccc3)NC(=O)[C@H](C)NC(=O)[C@H](CCCCNC(C)C)NC(=O)[C@H](CCCCN)NC(=O)[C@H](CC(=O)O)NC1=O)NC(=O)[C@H](CC1CCCCC1)NC(=O)[C@H](CC(N)=O)NC2=O (stereo partly drawn) [I-2347, Ac-PL3-Asn-Cha-B5-Asp-Lys-iPrLys-Ala-Phe-Leu-PyrS2-Phe-BztA-Gln-NH2]
6.75 | CC(=O)N1CCC[C@]12CC=CCCCC1(CCCC=CCCCOC(=O)N3CC[C@@](C(=O)N[C@@H](Cc4ccccc4)C(=O)N[C@@H](Cc4csc5ccccc45)C(=O)N[C@@H](CCC(N)=O)C(N)=O)(C3)NC(=O)[C@H](CC(C)C)NC(=O)[C@H](Cc3ccccc3)NC(=O)[C@H](C)NC(=O)[C@H](CCCCNC(C)C)NC(=O)[C@H](Cc3c[nH]cn3)NC(=O)[C@H](CC(=O)O)NC1=O)NC(=O)[C@H](CC1CCCCC1)NC(=O)[C@H](CC(N)=O)NC2=O (stereo partly drawn) [I-2348, Ac-PL3-Asn-Cha-B5-Asp-His-iPrLys-Ala-Phe-Leu-PyrS2-Phe-BztA-Gln-NH2]
5.94 | CC(=O)N1CCC[C@]12CC=CCCCC1(CCCC=CCCCOC(=O)N3CC[C@@](C(=O)N[C@@H](Cc4ccccc4)C(=O)N[C@@H](Cc4csc5ccccc45)C(=O)N[C@@H](CCC(N)=O)C(N)=O)(C3)NC(=O)[C@H](CC(C)C)NC(=O)[C@H](Cc3ccccc3)NC(=O)[C@H](C)NC(=O)[C@H](CCCCNC(C)C)NC(=O)[C@H](Cc3c[nH]cn3)NC(=O)[C@H](CC(=O)O)NC1=O)NC(=O)[C@H](CC1CCCCC1)NC(=O)[C@H](CC(N)=O)NC2=O (stereo partly drawn) [I-2349, Ac-PL3-Asn-Cha-B5-Asp-His-iPrLys-Ala-Phe-Leu-PyrS2-Phe-BztA-Gln-NH2]
6.73 | CC(=O)N1CCC[C@]12CC=CCCCC1(CCCC=CCCCOC(=O)N3CC[C@@](C(=O)N[C@@H](Cc4ccccc4)C(=O)N[C@@H](Cc4csc5ccccc45)C(=O)N[C@@H](Cc4c[nH]cn4)C(N)=O)(C3)NC(=O)[C@H](CC(C)C)NC(=O)[C@H](Cc3ccccc3)NC(=O)[C@H](C)NC(=O)[C@H](CCCCNC(C)C)NC(=O)[C@H](CCC(N)=O)NC(=O)[C@H](CC(=O)O)NC1=O)NC(=O)[C@H](CC1CCCCC1)NC(=O)[C@H](CC(N)=O)NC2=O (stereo partly drawn) [I-2351, Ac-PL3-Asn-Cha-B5-Asp-Gln-iPrLys-Ala-Phe-Leu-PyrS2-Phe-BztA-His-NH2]
6.68 | CC(=O)N1CCC[C@]12CC=CCCCC1(CCCC=CCCCOC(=O)N3CC[C@@](C(=O)N[C@@H](Cc4ccccc4)C(=O)N[C@@H](Cc4csc5ccccc45)C(=O)N[C@@H](C)C(N)=O)(C3)NC(=O)[C@H](CC(C)C)NC(=O)[C@H](Cc3ccccc3)NC(=O)[C@H](C)NC(=O)[C@H](CCCCNC(C)C)NC(=O)[C@H](CCC(N)=O)NC(=O)[C@H](CC(=O)O)NC1=O)NC(=O)[C@H](CC1CCCCC1)NC(=O)[C@H](CC(N)=O)NC2=O (stereo partly drawn) [I-2352, Ac-PL3-Asn-Cha-B5-Asp-Gln-iPrLys-Ala-Phe-Leu-PyrS2-Phe-BztA-Ala-NH2]
